The assay has as its target human kisspeptin receptor (Homo sapiens (Human), UniProt Q969F8). The experiment in a line: Human KISS1R binding assay (membrane competition binding). The conditions noted are these: 90 min at room temperature; competition with 0.2 nM [125I]-metastin (45-54); Flp-In T-Rex 293 kisspeptin membranes; metal complexes nonradioactive Ga, In, Lu; read-out: hKiSSR Binding Ki (90 min). The procedure:
Crude membrane fractions are prepared from Flp-In T-Rex 293 (Thermo Fisher) cell line expressing the human kisspeptin receptor. The cells are grown to 85-100% confluence on standard tissue culture dishes in Dulbecco's Modified Eagles Medium (DMEM) (Corning) supplemented with 10% FBS (Gemini), 1% penicillin-streptomycin-glutamine (Gibco), 500 μg/mL hygromycin, and 15 μg/mL blastacidin. 48 hrs prior to preparing membranes 10 μg/ml of tetracycline is added to the culture media to induce receptor expression. To prepare membranes, cells are scraped and collected in 1× Dulbecco's phosphate buffered saline (Corning) and then pelleted at 1000 RPMs. The cell pellet is reconstituted in membrane preparation buffer (20 mM HEPES, 6 mM MgCl2 and 1 mM EGTA, protease inhibitor tablets (Pierce), pH 7.4) and placed in a cell disruption vessel (Parr Instrument company) at 1000 PSI for 30 min on ice. The pressurized contents are then released and spun down at 1000 RPMs and the supernatant is collected and further centrifuged at 15,000 RPMs to pellet the membranes. The membrane pellet is resuspended in membrane preparation buffer, snap frozen and stored at −80° C. for later use.
The human kisspeptin membrane binding assay utilizes the following components: radiolabel [^125I]-metastin (45-54) (human) (Perkinhmer), crude Flp-In T-Rex 293 kisspeptin membranes, and competing small molecule and peptide ligands. The assay is initiated by combining in assay buffer (50 mM TrisHCl, 5 mM MgCl2, 2 mM EGTA, 10 mM CaCl2, 0.1% BSA, pH 7.4) a dose response of competing ligand (final concentrations are typically 0-10,000 nM), 5-10 μg of Flp-In T-Rex 293 kisspeptin membranes, and 0.2 n M [^125I]-metastin (45-54) in a 96-well assay plate and allowed to incubate 90 minutes at room temperature. Assay contents are then filtered through unifilter CF/C: microplates (PerkinElmer) pre-soaked with 0.5% BSA and washed with 9×400 μL of cold wash buffer (10 mM HEPES, 500 mM NaCl, 0.1% Tween-20, pH7.4). Assay plates are read using a Microbeta^2 (PerkinElmer) and Ki values for compounds are determined using a GraphPad Prism 9.3 non-linear regression analysis.

Numbered stars: 1 amine (or outer) side, 2 acyl side, 3 side chain; on linkers, the order of the positions; unused ones are H or OH. Square brackets hold non-standard residues; d marks the D form. Peptide text beside a SMILES is read from it. * marks the point of attachment. DOTA = O=C(O)CN1CCN(CC(=O)O)CCN(CC(=O)*)CCN(CC(=O)O)CC1; Gly(N-(3-F-4-Me-benzyl)) = Cc1ccc(CNCC(=O)*)cc1F; Butanoyl(4-(4-I-phenyl)) = O=C(CCCc1ccc(I)cc1)*; X16 = O=C(c1ccc(-c2ccccc2)c(OCCCN[*:1])c1)[*:2]; X4 = O=C(c1ccc(-c2ccccc2OCCCN[*:1])cc1)[*:2]; Bip = N[C@@H](Cc1ccc(-c2ccccc2)cc1)C(=O)O; X9 = O=C(CCOCCOCCOCCOCCOCCOCCOCCOCCO)*; d2Nal = N[C@H](Cc1ccc2ccccc2c1)C(=O)O; X1 = O=C(CN1CCC(N[*:1])CC1)[*:2]; 4Pal = N[C@@H](Cc1ccncc1)C(=O)O; d4Pal = N[C@H](Cc1ccncc1)C(=O)O; Cha = N[C@@H](CC1CCCCC1)C(=O)O; 4Amb = NCc1ccc(C(=O)O)cc1; 4Abz = Nc1ccc(C(=O)O)cc1; Api = NC1(C(=O)O)CCNCC1; PEG2 = NCCOCCOCCC(=O)O; Ahx = NCCCCCC(=O)O; azaGly = NNC(=O)O; Sar = CNCC(=O)O

What is called Ki is a measure of affinity in units of concentration, obtained from inhibition or displacement.

Sequence of human kisspeptin receptor (Q969F8 whole entry): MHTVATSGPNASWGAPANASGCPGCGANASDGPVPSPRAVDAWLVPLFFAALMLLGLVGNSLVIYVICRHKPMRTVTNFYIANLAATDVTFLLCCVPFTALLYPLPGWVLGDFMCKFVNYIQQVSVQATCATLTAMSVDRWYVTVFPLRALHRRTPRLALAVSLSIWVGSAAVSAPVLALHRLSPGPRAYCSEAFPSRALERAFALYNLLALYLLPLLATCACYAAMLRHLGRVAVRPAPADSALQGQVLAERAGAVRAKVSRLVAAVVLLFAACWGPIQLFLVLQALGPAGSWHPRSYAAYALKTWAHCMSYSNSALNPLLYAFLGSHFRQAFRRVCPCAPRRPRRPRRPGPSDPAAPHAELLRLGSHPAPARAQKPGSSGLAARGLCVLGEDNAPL

For the compound `Cc1ccc(CNCC(=O)N2CCC(NC(=O)[C@H](CC(C)C)NC(=O)NNC(=O)[C@H](Cc3ccccc3)NC(=O)[C@@H](NC(=O)[C@H](CC(N)=O)NC(=O)c3ccc(CNC(=O)[C@H](Cc4ccc(O)cc4)NC(=O)CNC(=O)CN4CCN(CC(=O)O)CCN(CC(=O)O)CCN(CC(=O)O)CC4)cc3)[C@@H](C)O)(C(=O)N[C@@H](Cc3c[nH]c4ccccc34)C(N)=O)CC2)cc1F` [Compound 213] ({DOTA}-GY[4Amb]NTF[azaGly]L[Api](Gly(N-(3-F-4-Me-benzyl)))W-NH2), the Ki was < 0.01 µM. Next, `Cc1ccc(CNCC(=O)N2CCC(NC(=O)[C@H](CC(C)C)NC(=O)NNC(=O)c3ccc(-c4ccccc4OCCCNC(=O)CN4CCN(CC(=O)O)CCN(CC(=O)O)CCN(CC(=O)O)CC4)cc3)(C(=O)N[C@@H](Cc3c[nH]c4ccccc34)C(N)=O)CC2)cc1F` [Compound 298] ({DOTA}-[X4][azaGly]L[Api](Gly(N-(3-F-4-Me-benzyl)))W-NH2): < 0.01 µM; `Cc1ccc(CNCC(=O)N2CCC(NC(=O)[C@H](CC(C)C)NC(=O)NNC(=O)[C@H](Cc3ccccc3)NC(=O)[C@@H](NC(=O)[C@H](CC(N)=O)NC(=O)[C@H](CCCCNC(=O)CN3CCN(CC(=O)O)CCN(CC(=O)O)CCN(CC(=O)O)CC3)NC(=O)CCOCCOCCOCCOCCOCCOCCOCCOCCO)[C@@H](C)O)(C(=O)N[C@@H](Cc3ccncc3)C(N)=O)CC2)cc1F` [Compound 256] (X9-K(DOTA)NTF[azaGly]L[Api](Gly(N-(3-F-4-Me-benzyl)))[4Pal]-NH2): < 0.01 µM; `Cc1ccc(CNCC(=O)N2CCC(NC(=O)[C@H](CC(C)C)SC(C)(C)CNC(=O)[C@H](Cc3ccccc3)NC(=O)CCCCCNC(=O)CN3CCN(CC(=O)O)CCN(CC(=O)O)CCN(CC(=O)O)CC3)(C(=O)N[C@@H](Cc3c[nH]c4ccccc34)C(N)=O)CC2)cc1F` [Compound 138]: 0.01 to 0.1 µM.

Consider `Cc1ccc(CNCC(=O)N2CCC(NC(=O)[C@H](CC(C)C)NC(=O)NNC(=O)[C@H](Cc3ccccc3)NC(=O)[C@@H](NC(=O)[C@H](CC(N)=O)NC(=O)[C@H](Cc3ccc(-c4ccccc4)cc3)NC(=O)[C@@H](Cc3ccc(O)cc3)NC(=O)CCCCCNC(=O)CN3CCN(CC(=O)O)CCN(CC(=O)O)CCN(CC(=O)O)CC3)[C@@H](C)O)(C(=O)N[C@@H](Cc3c[nH]c4ccccc34)C(N)=O)CC2)cc1F` [Compound 363] ({DOTA-Ahx}-[dY][Bip]NTF[azaGly]L[Api](Gly(N-(3-F-4-Me-benzyl)))W-NH2), for which the inhibition constant (Ki) is < 0.01 µM. The value for `Cc1ccc(CNCC(=O)N2CCC(NC(=O)[C@H](CC(C)C)NC(=O)NNC(=O)[C@H](Cc3ccccc3)NC(=O)c3ccc(NC(=O)CN4CCN(CC(=O)O)CCN(CC(=O)O)CCN(CC(=O)O)CC4)cc3)(C(=O)N[C@@H](Cc3c[nH]c4ccccc34)C(N)=O)CC2)cc1F` [Compound 50] ({DOTA-4Abz}-F[azaGly]L[Api](Gly(N-(3-F-4-Me-benzyl)))W-NH2) was < 0.01 µM; that for `Cc1ccc(CNCC(=O)N2CCC(NC(=O)[C@H](CC(C)C)NC(=O)NNC(=O)[C@H](Cc3ccccc3)NC(=O)[C@@H](NC(=O)[C@H](CC(N)=O)NC(=O)[C@@H](Cc3ccncc3)NC(=O)[C@@H](Cc3ccc(O)cc3)NC(=O)CCCCCNC(=O)CN3CCN(CC(=O)O)CCN(CC(=O)O)CCN(CC(=O)O)CC3)[C@@H](C)O)(C(=O)N[C@@H](Cc3ccncc3)C(N)=O)CC2)cc1F` [Compound 294] ({DOTA-Ahx}-[dY][d4Pal]NTF[azaGly]L[Api](Gly(N-(3-F-4-Me-benzyl)))[4Pal]-NH2) was < 0.01 µM. Next, `Cc1ccc(CNCC(=O)N2CCC(NC(=O)[C@H](CC(C)C)NC(=O)NNC(=O)[C@H](Cc3ccccc3)NC(=O)[C@@H](NC(=O)[C@H](CC(N)=O)NC(=O)[C@@H](Cc3c[nH]c4ccccc34)NC(=O)[C@@H](Cc3ccc(O)cc3)NC(=O)CCCCCNC(=O)CN3CCN(CC(=O)O)CCN(CC(=O)O)CCN(CC(=O)O)CC3)[C@@H](C)O)(C(=O)N[C@@H](Cc3ccc(O)cc3)C(N)=O)CC2)cc1F` [Compound 366] ({DOTA-Ahx}-[dY][dW]NTF[azaGly]L[Api](Gly(N-(3-F-4-Me-benzyl)))Y-NH2): < 0.01 µM; `Cc1ccc(CNCC(=O)N2CCC(NC(=O)[C@H](CC(C)C)NC(=O)NNC(=O)[C@H](Cc3ccccc3)NC(=O)c3ccc(CNC(=O)CCCCCNC(=O)CN4CCN(CC(=O)O)CCN(CC(=O)O)CCN(CC(=O)O)CC4)cc3)(C(=O)N[C@@H](Cc3c[nH]c4ccccc34)C(N)=O)CC2)cc1F` [Compound 22] ({DOTA-Ahx-4Amb}-F[azaGly]L[Api](Gly(N-(3-F-4-Me-benzyl)))W-NH2): < 0.01 µM; `CNCC(=O)N1CCC(NC(=O)[C@H](CC(C)C)NC(=O)NNC(=O)[C@H](Cc2ccccc2)NC(=O)[C@@H](NC(=O)[C@H](CC(N)=O)NC(=O)[C@@H](Cc2ccc3ccccc3c2)NC(=O)[C@@H](Cc2ccc(O)cc2)NC(=O)CCCc2ccc(I)cc2)[C@@H](C)O)(C(=O)N[C@@H](Cc2ccccc2)C(N)=O)CC1` [Compound 398] ({Butanoyl(4-(4-I-phenyl))}-[dY][d2Nal]NTF[azaGly]L[Api](Sar)F-NH2): < 0.01 µM. Next, `Cc1ccc(CNCC(=O)N2CCC(NC(=O)[C@H](CC(C)C)NC(=O)NNC(=O)[C@H](Cc3ccccc3)NC(=O)[C@@H](NC(=O)[C@H](CC(N)=O)NC(=O)[C@@H](Cc3c[nH]c4ccccc34)NC(=O)CCCCCNC(=O)CN3CCN(CC(=O)O)CCN(CC(=O)O)CCN(CC(=O)O)CC3)[C@@H](C)O)(C(=O)N[C@@H](Cc3c[nH]c4ccccc34)C(N)=O)CC2)cc1F` [Compound 30] ({DOTA-Ahx}-[dW]NTF[azaGly]L[Api](Gly(N-(3-F-4-Me-benzyl)))W-NH2): < 0.01 µM; `Cc1ccc(CNCC(=O)N2CCC(NC(=O)[C@H](CC(C)C)NC(=O)NNC(=O)[C@H](CC3CCCCC3)NC(=O)[C@@H](NC(=O)[C@H](CC(N)=O)NC(=O)[C@@H](Cc3ccncc3)NC(=O)[C@@H](Cc3ccc(O)cc3)NC(=O)CCCCCNC(=O)CN3CCN(CC(=O)O)CCN(CC(=O)O)CCN(CC(=O)O)CC3)[C@@H](C)O)(C(=O)N[C@@H](Cc3c[nH]c4ccccc34)C(N)=O)CC2)cc1F` [Compound 316] ({DOTA-Ahx}-[dY][d4Pal]NT[Cha][azaGly]L[Api](Gly(N-(3-F-4-Me-benzyl)))W-NH2): < 0.01 µM.

Take `Cc1ccc(CNCC(=O)N2CCC(NC(=O)[C@H](CC(C)C)NC(=O)NNC(=O)[C@H](Cc3ccccc3)NC(=O)[C@@H](NC(=O)[C@H](CC(N)=O)NC(=O)[C@@H](Cc3ccncc3)NC(=O)[C@@H](Cc3ccc(O)cc3)NC(=O)CCOCCOCCNC(=O)CN3CCN(CC(=O)O)CCN(CC(=O)O)CCN(CC(=O)O)CC3)[C@@H](C)O)(C(=O)N[C@@H](Cc3c[nH]c4ccccc34)C(N)=O)CC2)cc1F` [Compound 368] ({DOTA-PEG2}-[dY][d4Pal]NTF[azaGly]L[Api](Gly(N-(3-F-4-Me-benzyl)))W-NH2): the inhibition constant Ki was < 0.01 µM. In the case of `Cc1ccc(CNCC(=O)N2CCC(NC(=O)[C@H](CC(C)C)NC(=O)NNC(=O)c3ccc(-c4ccccc4)c(OCCCNC(=O)CN4CCC(NC(=O)CN5CCN(CC(=O)O)CCN(CC(=O)O)CCN(CC(=O)O)CC5)CC4)c3)(C(=O)N[C@@H](Cc3c[nH]c4ccccc34)C(N)=O)CC2)cc1F` [Compound 216] ({DOTA}-[X1][X16][azaGly]L[Api](Gly(N-(3-F-4-Me-benzyl)))W-NH2), the inhibition constant Ki is < 0.01 µM.

For the origin of these results see US20250312499A1, “KISSPEPTIN RECEPTOR (KISS1R) TARGETED THERAPEUTICS AND USES THEREOF” (priority 2024, published 2025).
